Our source for the pest or weed control and melting point values is patent publication US9000002B2, “N1-substituted-5-fluoro-2-oxopyrimidinone-1(2H)-carboxamide derivatives” (Dow Agrosciences LLC, priority 2009, dated 2015).

One may read the melting point as the temperature of the solid-liquid transition.

In the first data set the test system is Mycosphaerella graminicola; Anamorph: Septoria tritici; Bayer Code SEPTTR. Nature of the data set: Evaluation of fungicidal activity: leaf blotch of wheat (SEPTTR), wheat plants variety Yuma. Format: in vivo. The note with it: Zymoseptoria tritici, 24 h; One-Day Protectant (1DP), 100 ppm, wheat plants, percent control vs untreated inoculated plants; read-out: SEPTTR 100 PPM 1DP (% Disease Control rating). The procedure:
Evaluation of Fungicidal Activity: Leaf Blotch of Wheat (Mycosphaerella graminicola; Anamorph: Septoria tritici; Bayer Code […]) Wheat plants (variety Yuma) were grown from seed in a greenhouse in 50% mineral soil/50% soil-less Metro mix until the first leaf was fully emerged, with 7-10 seedlings per pot. These plants were inoculated with an aqueous spore suspension of Septoria tritici either prior to or after fungicide treatments. After inoculation the plants were kept in 100% relative humidity (one day in a dark dew chamber followed by two to three days in a lighted dew chamber) to permit spores to germinate and infect the leaf. The plants were then transferred to a greenhouse for disease to develop. The following table presents the activity of typical compounds of the present disclosure when evaluated in these experiments. The effectiveness of the test compounds in controlling disease was determined by assessing the severity of disease on treated plants, then converting the severity to percent control based on the level of disease on untreated, inoculated plants. • In each case of Table II the rating scale is as follows: […]
For the molecule `Cn1ccc2cc(NC(=O)n3cc(F)c(N)nc3=O)ccc21` [Compound 18], the pest or weed control at 100 ppm was in the range of 76 to 100%.
Turning to `Nc1nc(=O)n(C(=O)Nc2ccc3sccc3c2)cc1F` [Compound 19], the pest or weed control at 100 ppm lay within 76 to 100%.
Still for that read-out and setting: the figure for `Nc1nc(=O)n(C(=O)Nc2ccsc2)cc1F` [Compound 20] is 76 to 100%; for `Nc1nc(=O)n(C(=O)Nc2ccc(F)cc2)cc1F` [Compound 21] it is 76 to 100%.
For `Nc1nc(=O)n(C(=O)NCc2ccccc2F)cc1F` [Compound 22], the pest or weed control at 100 ppm lay within 76 to 100%.
`CCCNC(=O)n1cc(F)c(N)nc1=O` [Compound 23]: the pest or weed control at 100 ppm lay in the range of 76 to 100%.
For `CC(C)NC(=O)n1cc(F)c(N)nc1=O` [Compound 24], the pest or weed control at 100 ppm fell in the range of 76 to 100%.
Turning to `CCOC(=O)CNC(=O)n1cc(F)c(N)nc1=O` [Compound 25], the pest or weed control at 100 ppm was in the range of 76 to 100%.
On the same count and under the same terms, next, `CSCCNC(=O)n1cc(F)c(N)nc1=O` [Compound 26]: 76 to 100%.
Regarding `COCCCNC(=O)n1cc(F)c(N)nc1=O` [Compound 27], the pest or weed control at 100 ppm fell in the range of 76 to 100%.
Still for that read-out and setting: next, `O=C(Nc1ccc(F)cc1F)n1cc(F)c(NCc2ccccc2F)nc1=O` [Compound 29]: 0 to 25%; `Cc1ccc(NC(=O)n2cc(F)c(NCc3ccccc3F)nc2=O)cc1` [Compound 30]: 0 to 25%.
On the same count and under the same terms, next, `O=C(Nc1cccc(Cl)c1)n1cc(F)c(NCc2ccccc2F)nc1=O` [Compound 31]: 0 to 25%; `CCCNC(=O)n1cc(F)c(NCc2ccccc2F)nc1=O` [Compound 32]: 26 to 50%; `CCN(CC)C(=S)n1cc(F)c(/N=C/N(C)C)nc1=O` [Compound 33, (E)-4-((dimethylamino)methyleneamino)-N,N-diethyl-5-fluoro-2-oxopyrimidine-1(2H)-carbothioamide]: 0 to 25%.
Turning to `CN(C(=S)n1cc(F)c(N)nc1=O)c1ccccc1` [Compound 34, 4-amino-5-fluoro-N-methyl-2-oxo-N-phenylpyrimidine-1(2H)-carbothioamide], the pest or weed control at 100 ppm is 76 to 100%.
Take `CN(C(=S)n1cc(F)c(N)nc1=O)c1cccc(C(F)(F)F)c1` [Compound 35]: the pest or weed control at 100 ppm is 76 to 100%.
For `CN(C(=S)n1cc(F)c(N)nc1=O)c1cc(Cl)cc(Cl)c1` [Compound 36], the pest or weed control at 100 ppm is 76 to 100%.

Still in this data set, the particulars now being: Zymoseptoria tritici, 72 h; Three-Day Curative (3DC), 100 ppm, wheat plants, percent control vs untreated inoculated plants; read-out: SEPTTR 100 PPM 3DC (% Disease Control rating).
Consider `Cn1ccc2cc(NC(=O)n3cc(F)c(N)nc3=O)ccc21` [Compound 18], for which the pest or weed control at 100 ppm was in the range of 76 to 100%.
As to `Nc1nc(=O)n(C(=O)Nc2ccc3sccc3c2)cc1F` [Compound 19], the pest or weed control at 100 ppm was in the range of 76 to 100%.
For `Nc1nc(=O)n(C(=O)Nc2ccsc2)cc1F` [Compound 20], the pest or weed control at 100 ppm was 76 to 100%.
With `Nc1nc(=O)n(C(=O)Nc2ccc(F)cc2)cc1F` [Compound 21], the pest or weed control at 100 ppm fell in the range of 76 to 100%.
For `Nc1nc(=O)n(C(=O)NCc2ccccc2F)cc1F` [Compound 22], the pest or weed control at 100 ppm lay within 76 to 100%.
As for `CCCNC(=O)n1cc(F)c(N)nc1=O` [Compound 23], the pest or weed control at 100 ppm was 76 to 100%.
As for `CC(C)NC(=O)n1cc(F)c(N)nc1=O` [Compound 24], the pest or weed control at 100 ppm is 76 to 100%.
On the same count and under the same terms, the figure for `CCOC(=O)CNC(=O)n1cc(F)c(N)nc1=O` [Compound 25] is 76 to 100%.
For `CSCCNC(=O)n1cc(F)c(N)nc1=O` [Compound 26], the pest or weed control at 100 ppm is 76 to 100%.
With `COCCCNC(=O)n1cc(F)c(N)nc1=O` [Compound 27], the pest or weed control at 100 ppm was in the range of 76 to 100%.
Consider `O=C(Nc1ccc(F)cc1F)n1cc(F)c(NCc2ccccc2F)nc1=O` [Compound 29], for which the pest or weed control at 100 ppm was 26 to 50%.
On the same count and under the same terms, the figure for `Cc1ccc(NC(=O)n2cc(F)c(NCc3ccccc3F)nc2=O)cc1` [Compound 30] is 26 to 50%.
On to `O=C(Nc1cccc(Cl)c1)n1cc(F)c(NCc2ccccc2F)nc1=O` [Compound 31], for which the pest or weed control at 100 ppm was 0 to 25%.
Turning to `CCCNC(=O)n1cc(F)c(NCc2ccccc2F)nc1=O` [Compound 32], the pest or weed control at 100 ppm fell in the range of 51 to 75%.
Regarding `CCN(CC)C(=S)n1cc(F)c(/N=C/N(C)C)nc1=O` [Compound 33, (E)-4-((dimethylamino)methyleneamino)-N,N-diethyl-5-fluoro-2-oxopyrimidine-1(2H)-carbothioamide], the pest or weed control at 100 ppm fell in the range of 26 to 50%.
Turning to `CN(C(=S)n1cc(F)c(N)nc1=O)c1ccccc1` [Compound 34, 4-amino-5-fluoro-N-methyl-2-oxo-N-phenylpyrimidine-1(2H)-carbothioamide], the pest or weed control at 100 ppm lay in the range of 76 to 100%.
Take `CN(C(=S)n1cc(F)c(N)nc1=O)c1cccc(C(F)(F)F)c1` [Compound 35]: the pest or weed control at 100 ppm is 76 to 100%.
As to `CN(C(=S)n1cc(F)c(N)nc1=O)c1cc(Cl)cc(Cl)c1` [Compound 36], the pest or weed control at 100 ppm lay in the range of 76 to 100%.

Test system in a further data set: not given
Assay: not given
Settings: not given
As to `Cn1ccc2cc(NC(=O)n3cc(F)c(N)nc3=O)ccc21` [Compound 18], the melting point fell in the range of 268 to 270 °C.
With `Nc1nc(=O)n(C(=O)Nc2ccc3sccc3c2)cc1F` [Compound 19], the melting point lay in the range of 282 to 284 °C.
Turning to `Nc1nc(=O)n(C(=O)Nc2ccsc2)cc1F` [Compound 20], the melting point was in the range of 263 to 265 °C.
`Nc1nc(=O)n(C(=O)Nc2ccc(F)cc2)cc1F` [Compound 21] had a melting point of 257 to 259 °C.
Same read-out and setting: the figure for `Nc1nc(=O)n(C(=O)NCc2ccccc2F)cc1F` [Compound 22] is 260 to 262 °C.
`CCCNC(=O)n1cc(F)c(N)nc1=O` [Compound 23]: the melting point fell in the range of 290 to 293 °C.
Same read-out and setting: the figure for `CC(C)NC(=O)n1cc(F)c(N)nc1=O` [Compound 24] is 291 to 294 °C.
For the molecule `CCOC(=O)CNC(=O)n1cc(F)c(N)nc1=O` [Compound 25], the melting point was 220 to 224 °C.
As to `CSCCNC(=O)n1cc(F)c(N)nc1=O` [Compound 26], the melting point lay in the range of 237 to 239 °C.
As for `COCCCNC(=O)n1cc(F)c(N)nc1=O` [Compound 27], the melting point lay within 295 to 298 °C.
For the molecule `O=C(Nc1ccc(F)cc1F)n1cc(F)c(NCc2ccccc2F)nc1=O` [Compound 29], the melting point lay in the range of 150 to 153 °C.
Molecule `Cc1ccc(NC(=O)n2cc(F)c(NCc3ccccc3F)nc2=O)cc1` [Compound 30] gave a melting point of 158 to 162 °C.
Regarding `O=C(Nc1cccc(Cl)c1)n1cc(F)c(NCc2ccccc2F)nc1=O` [Compound 31], the melting point is 158 to 160 °C.
`CCCNC(=O)n1cc(F)c(NCc2ccccc2F)nc1=O` [Compound 32]: the melting point was 113 to 116 °C.
The same measure, in the same setting: next, `CCN(CC)C(=S)n1cc(F)c(/N=C/N(C)C)nc1=O` [Compound 33, (E)-4-((dimethylamino)methyleneamino)-N,N-diethyl-5-fluoro-2-oxopyrimidine-1(2H)-carbothioamide]: 118 to 123 °C; `CN(C(=S)n1cc(F)c(N)nc1=O)c1ccccc1` [Compound 34, 4-amino-5-fluoro-N-methyl-2-oxo-N-phenylpyrimidine-1(2H)-carbothioamide]: 192 to 196 °C; `CN(C(=S)n1cc(F)c(N)nc1=O)c1cccc(C(F)(F)F)c1` [Compound 35]: 126 to 131 °C.
Still for that read-out and setting: the figure for `CN(C(=S)n1cc(F)c(N)nc1=O)c1cc(Cl)cc(Cl)c1` [Compound 36] is 200 to 203 °C.
